In one test the target is T1, Human DYRK1A (Homo sapiens, UniProt Q13627).
T1 construct: purchased Invitrogen PV3997
In words: DYRK1A Kinase TR-FRET (IMAP-Tb) Assay. In kind it is biochemical. Conditions: for IC50: TR-FRET, ATP 70 μM, 37° C. for 60 minutes, averages of multiple runs, read-out: Enzyme IC50 DYRK1A. The text has this: The kinase TR-FRET (IMAP-Tb) assay uses a fluorescence labeled substrate peptide in the kinase reaction. Upon phosphorylation by the kinase, phosphopeptide is produced, which will be detected by the binding solution provided in IMAP TR-FRET binding kit. After the completion of the kinase reaction, the reaction will be stopped by adding the binding solution containing terbium tracer. This tracer is immobilized on the surface of the IMAP beads, which also contain metal ions on the beads that bind to the phospho-groups of the products. Thus the phosphorylated product of the reaction can enter into close proximity to the tracer, producing resonance energy transfer. Due to the long lifetime of terbium (Tb) fluorescence the detection can be run in time resolved mode, which virtually eliminates fluorescence interference from assay components or compounds.
The TR-FRET signal measurement from this assay, given as an IC50 measurement, is a measure of a test compound's ability to interfere with the phosphorylation of the peptide substrate, that is it inhibits the phosphorylation of the substrate peptide by DYRK1A, and is thus a measure of the test compound's ability to inhibit the activity of DYRK1A.
1. Human DYRK1A: from Invitrogen. Part # PV3997
2. Substrate Peptide: […]
3. IMAP TR-FRET IPP Explorer Kit: from Molecular Devices. Part # R8157 4. Kinase Assay Buffer (KAB): 10 mM HEPES pH 7.0, 50 mM NaCl, 5 mM MgCl2, 1 mM DTT, 1 mM NaVO4, 200 μg/mL BSA (0.02%) 5. Assay Plate: Remp polypropylene clear 384-well microplate. […] Detection Plate: Costa black 384-well microplate. […] Transfer 1.5 μL of 20× compound solution to each well of an assay plate. 2. Add to each well 22.5 μL of KAB Buffer. 3. Add to each well 3 μL of the solution of DYRK1A and ATP. […] Add to each well 3 μL of the substrate peptide. The assay concentration is 1.0 μM 5. Incubate the assay plates at 37° C. for 60 minutes. 6. Add 18 μL of Detection Solution (1:800 diluted Progress bead stock, 1:400 diluted Tb stock, 80% Buffer A, and 20% Buffer B) into each well of detection plates. 7. Transfer 6 μL of assay solution from the assay plate to the detection plate. 8. Shake detection plates for 30 minutes. 9. Read plates in Envision with wavelength set at excitation 340 nm for Tb, emission 490 nm, and […].
In general terms: In TR-FRET formats the signal depends on donor and acceptor labels being close together.

The target in another test is T2, Human DYRK1B (Homo sapiens, UniProt Q9Y463).
T2 construct: purchased Invitrogen PR8350B (former PV4649)
T2 sequence (Q9Y463 whole entry): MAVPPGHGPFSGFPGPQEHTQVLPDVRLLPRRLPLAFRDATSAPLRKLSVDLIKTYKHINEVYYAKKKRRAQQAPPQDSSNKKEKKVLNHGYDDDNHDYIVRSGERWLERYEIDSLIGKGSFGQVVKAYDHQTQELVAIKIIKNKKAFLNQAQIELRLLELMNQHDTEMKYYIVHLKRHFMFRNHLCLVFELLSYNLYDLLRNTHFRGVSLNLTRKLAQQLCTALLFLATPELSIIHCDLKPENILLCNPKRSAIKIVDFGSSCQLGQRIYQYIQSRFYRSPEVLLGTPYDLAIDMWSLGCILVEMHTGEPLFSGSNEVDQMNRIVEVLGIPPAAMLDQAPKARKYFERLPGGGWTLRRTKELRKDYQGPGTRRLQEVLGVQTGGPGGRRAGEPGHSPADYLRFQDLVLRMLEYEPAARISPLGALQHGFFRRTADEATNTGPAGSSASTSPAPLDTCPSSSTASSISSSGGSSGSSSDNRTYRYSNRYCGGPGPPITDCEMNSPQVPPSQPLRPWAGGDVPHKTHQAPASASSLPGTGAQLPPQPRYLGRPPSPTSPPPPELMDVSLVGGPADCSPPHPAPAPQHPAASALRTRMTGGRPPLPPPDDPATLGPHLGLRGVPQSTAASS
Description: DYRK1B Kinase TR-FRET (IMAP-Tb) Assay. Type of test: biochemical. The conditions noted are these: for inhibition at 10 µM: 10 μM test compound, reported where IC50 was not determined, read-out: Enzyme DYRK1B % inhibition at 10 μM test compound concentration; for IC50: TR-FRET, ATP 70 μM, 37° C. for 60 minutes, averages of multiple runs, read-out: Enzyme IC50 DYRK1B. The source says: The kinase TR-FRET (IMAP-Tb) assay uses a fluorescence labeled substrate peptide in the kinase reaction. Upon phosphorylation by the kinase, phosphopeptide is produced, which will be detected by the binding solution provided in IMAP TR-FRET binding kit. After the completion of the kinase reaction, the reaction will be stopped by adding the binding solution containing terbium tracer. This tracer is immobilized on the surface of the IMAP beads, which also contain metal ions on the beads that bind to the phospho-groups of the products. Thus the phosphorylated product of the reaction can enter into close proximity to the tracer, producing resonance energy transfer. Due to the long lifetime of terbium (Tb) fluorescence the detection can be run in time resolved mode, which virtually eliminates fluorescence interference from assay components or compounds. […] IC50 is the amount of test compound that inhibits 50% of the activity of DYRK1B in this assay. […] 1. Human DYRK1B: from Invitrogen. Part # PR8350B (former PV4649) 2. Substrate Peptide: RRRFRPASPLRGPPK 3. IMAP TR-FRET IPP Explorer Kit: from Molecular Devices. Part # R8157 4. Kinase Assay Buffer (KAB): 10 mM HEPES pH 7.0, 50 mM NaCl, 5 mM MgCl2, 1 mM DTT, 1 mM NaVO4, 200 μg/mL BSA (0.02%) 5. Assay Plate: Remp polypropylene clear 384-well microplate. Cat#23490-102 6. Detection Plate: Costa black 384-well microplate. Cat #3710 Assay Procedure: This assay was performed as follows: 1. Transfer 1.5 μL of 20× compound solution to each well of an assay plate. 2. Add to each well 22.5 μL of KAB Buffer. 3. Add to each well 3 μL of the solution of DYRK1B and ATP. […] Add to each well 3 μL of the substrate peptide. […] Incubate the assay plates at 37° C. for 60 minutes. 6. Add 18 μL of Detection Solution (1:800 diluted Progress bead stock, 1:400 diluted Tb stock, 80% Buffer A, and 20% Buffer B) into each well of detection plates. 7. Transfer 6 μL of assay solution from the assay plate to the detection plate. 8. Shake detection plates for 30 minutes. 9. Read plates in Envision with wavelength set at excitation 340 nm for Tb, emission 490 nm, and […]. 10. Calculation: TR-FRET Signal=(Reading at […])×2000000

Bounds are passed on as bounds.

Regarding `COc1cc2cc(C(=O)Nc3cc(C(=O)NC(CO)C(C)C)ccc3C)c(=O)[nH]c2cc1OC` (stereo not drawn) [Example 33, 6,7-Dimethoxy-2-oxo-1,2-dihydro-quinoline-3-carboxylic acid [5-(1-hydroxymethyl-2-methyl-propylcarbamoyl)-2-methyl-phenyl]-amide], the inhibition at 10 µM on Human DYRK1A (10 μM test compound, reported where IC50 was not determined, read-out: Enzyme DYRK1A % inhibition at 10 μM test compound concentration) came to 36%; at Human DYRK1B, 36%.

By IC50 is commonly meant the concentration that gives 50% inhibition. On to `COc1cc2cc(C(=O)Nc3cc(C(=O)N[C@H](CO)CC(C)C)ccc3C)c(=O)[nH]c2cc1OC` [Example 65, (S)-N-(5-(1-Hydroxy-4-methylpentan-2-ylcarbamoyl)-2-methylphenyl)-6,7-dimethoxy-2-oxo-1,2-dihydroquinoline-3-carboxamide], for which, on Human DYRK1A, the half-maximal inhibitory concentration (IC50) is 4310 nM. Also, the inhibition at 10 µM at Human DYRK1B was determined as 26%.

On to `COC(=O)c1ccc(Cl)c(NC(=O)C2Cc3cc(OC)c(OC)cc3NC2=O)c1` (stereo not drawn) [Example 71, 4-Chloro-3-[(6,7-dimethoxy-2-oxo-1,2,3,4-tetrahydro-quinoline-3-carbonyl)-amino]-benzoic acid methyl ester], for which the IC50 at Human DYRK1A was determined as 690 nM; on Human DYRK1B, 860 nM.

As to `COCCOc1cc2cc(C(=O)Nc3cc(-c4nnn[nH]4)ccc3C)c(=O)[nH]c2cc1OC` [Example 24, 7-Methoxy-6-(2-methoxy-ethoxy)-2-oxo-1,2-dihydro-quinoline-3-carboxylic acid [2-methyl-5-(1H-tetrazol-5-yl)-phenyl]-amide], the figures for the concentration for half-maximal inhibition (IC50) at Human DYRK1A and on Human DYRK1B were 1760 nM and 2670 nM, respectively.

As for `COCCOc1cc2cc(C(=O)Nc3cc(C(=O)OC)ccc3C)c(=O)[nH]c2cc1OCCOC` [Example 25, 3-{[6,7-Bis-(2-methoxy-ethoxy)-2-oxo-1,2-dihydro-quinoline-3-carbonyl]-amino}-4-methyl-benzoic acid methyl ester], the results for the half-inhibitory concentration (IC50) on Human DYRK1A and at Human DYRK1B were 604 nM and 911 nM, respectively.

For `COCCOc1cc2cc(C(=O)Nc3cc(C(=O)N[C@@H](CCN)c4ccccc4)ccc3C)c(=O)[nH]c2cc1OC` (single isomer, unassigned) [Example 59], the values for the IC50 on Human DYRK1A and at Human DYRK1B were 2380 nM and 4910 nM, respectively.

`COc1cc2cc(C(=O)Nc3cc(C(=O)N(C)C)ccc3Cl)c(=O)[nH]c2cc1OC` [Example 20, 6,7-Dimethoxy-2-oxo-1,2-dihydro-quinoline-3-carboxylic acid (2-chloro-5-dimethylcarbamoyl-phenyl)-amide]: the 50% inhibitory concentration (IC50) on Human DYRK1A was 1130 nM; on Human DYRK1B, 5090 nM.

With `COCCOCCOc1cc2cc(C(=O)Nc3cc(C(=O)NCc4cccc(Cl)c4)ccc3C)c(=O)[nH]c2cc1OC` [Example 70, 7-Methoxy-6-[2-(2-methoxy-ethoxy)-ethoxy]-2-oxo-1,2-dihydro-quinoline-3-carboxylic acid [5-(3-chloro-benzylcarbamoyl)-2-methyl-phenyl]-amide], the IC50 at Human DYRK1A amounted to 67 nM; at Human DYRK1B, 1690 nM.

Turning to `COc1cc2cc(C(=O)Nc3ccncc3C)c(=O)[nH]c2cc1OC` [Example 21, 6,7-Dimethoxy-2-oxo-1,2-dihydro-quinoline-3-carboxylic acid (3-methyl-pyridin-4-yl)-amide], the half-inhibitory concentration (IC50) was over 10000 nM on Human DYRK1A and 5480 nM on Human DYRK1B.

Turning to `COCCOc1cc2[nH]c(=O)c(C(=O)Nc3cc(C(=O)OC)ccc3C)cc2cc1OC` [Example 26, 3-{[6-Methoxy-7-(2-methoxy-ethoxy)-2-oxo-1,2-dihydro-quinoline-3-carbonyl]-amino}-4-methyl-benzoic acid methyl ester], the IC50 on Human DYRK1A stood at 5140 nM; at Human DYRK1B, 6420 nM.

For `COc1cc2c(cc1OC)NC(=O)C(C(=O)Nc1cc(C(=O)NCc3ccccc3)ccc1Cl)C2` (stereo not drawn) [Example 73, 6,7-Dimethoxy-2-oxo-1,2,3,4-tetrahydro-quinoline-3-carboxylic acid (5-benzylcarbamoyl-2-chloro-phenyl)-amide], the IC50 came out at 880 nM at Human DYRK1A and 2340 nM on Human DYRK1B.

As to `COc1cc2cc(C(=O)Nc3cc(C(=O)NCc4cccc(Cl)c4)ccc3C)c(=O)[nH]c2cc1OC` [Example 40, 6,7-Dimethoxy-2-oxo-1,2-dihydro-quinoline-3-carboxylic acid [5-(3-chloro-benzylcarbamoyl)-2-methyl-phenyl]-amide], on Human DYRK1A, the IC50 is 182 nM. Moreover, at Human DYRK1B, the inhibition at 10 µM was 34%.

Consider `COc1cc2cc(C(=O)Nc3cc(C(=O)N[C@@H](CO)CC(C)C)ccc3C)c(=O)[nH]c2cc1OC` [Example 66, (R)-N-(5-(1-Hydroxy-4-methylpentan-2-ylcarbamoyl)-2-methylphenyl)-6,7-dimethoxy-2-oxo-1,2-dihydroquinoline-3-carboxamide], for which the 50% inhibitory concentration (IC50) at Human DYRK1A was over 10000 nM. Also, the inhibition at 10 µM at Human DYRK1B came to 13%.

On to `COc1cc2cc(C(=O)Nc3cc(-c4ncco4)ccc3C)c(=O)[nH]c2cc1OC` [Example 51, 6,7-Dimethoxy-2-oxo-1,2-dihydro-quinoline-3-carboxylic acid (2-methyl-5-oxazol-2-yl-phenyl)-amide], for which the concentration for half-maximal inhibition (IC50) at Human DYRK1A amounted to 592 nM. Further, the inhibition at 10 µM on Human DYRK1B amounted to 42%.

As to `COc1cc2cc(C(=O)Nc3cc(C(=O)NCCCN4CCOCC4)ccc3C)c(=O)[nH]c2cc1OC` [Example 32, 6,7-Dimethoxy-2-oxo-1,2-dihydro-quinoline-3-carboxylic acid [2-methyl-5-(3-morpholin-4-yl-propylcarbamoyl)-phenyl]-amide], the concentration for half-maximal inhibition (IC50) on Human DYRK1A is 3620 nM; at Human DYRK1B, over 10000 nM.

Consider `COc1cc2cc(C(=O)Nc3cc(-c4nnn[nH]4)ccc3C)c(=O)[nH]c2cc1OC` [Example 22, 6,7-Dimethoxy-2-oxo-1,2-dihydro-quinoline-3-carboxylic acid [2-methyl-5-(1H-tetrazol-5-yl)-phenyl]-amide], for which the 50% inhibitory concentration (IC50) on Human DYRK1A was over 10000 nM; on Human DYRK1B it was 719 nM.

Turning to `COc1cc2cc(C(=O)Nc3ccncc3Cl)c(=O)[nH]c2cc1OC` [Example 36, 6,7-Dimethoxy-2-oxo-1,2-dihydro-quinoline-3-carboxylic acid (3-chloro-pyridin-4-yl)-amide], at Human DYRK1A, the concentration for half-maximal inhibition (IC50) worked out at 239 nM. Besides, the inhibition at 10 µM on Human DYRK1B amounted to 28%.

Take `COc1cc2cc(C(=O)Nc3cc(C(=O)NC(CCN)c4ccccc4)ccc3C)c(=O)[nH]c2cc1OC` (stereo in doubt) [Example 48, 6,7-Dimethoxy-2-oxo-1,2-dihydro-quinoline-3-carboxylic acid [5-((S)-3-amino-1-phenyl-propylcarbamoyl)-2-methyl-phenyl]-amide]: the half-inhibitory concentration (IC50) at Human DYRK1A is 1020 nM. Also, the inhibition at 10 µM on Human DYRK1B is 39%.
